Several values for one entry are separate records, joined by “and”; a condition that tells them apart may be missing. Equal entries are not always repeated.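 Cultured in 96-well plates, cells were exposed to test compound for 48 hours across five concentrations. GI50 = concentration required for 50% inhibition of growth. TGI denotes the concentration required for complete inhibition of growth.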 Some results are limits rather than exact numbers.

Test systems include MDA-MB-435; HCC-2998 colon; HL-60(TB) leukemia; SF-268 CNS; EKVX NSCLC; HCT-15 colon; COLO 205 colon; OVCAR-8 ovarian; M14 melanoma; OVCAR-5 ovarian.
Common to all, as to test: DTP human tumour cell line panel, 48 h

A word on the TGI: it is the concentration at which net growth stops. Turning to `C=CC(C)(C)n1cc(C2=C(O)C(=O)C(c3cn(C(C)(C)C=C)c4ccccc34)=C(O)C2=O)c2ccccc21`, the TGI is 14.7 µM in the assay with MDA-MB-435; 9.8 µM in the assay with HCC-2998 colon; greater than 31.5 µM in the assay on HL-60(TB) leukemia; 8.15 µM in the assay on SF-268 CNS; 14 µM in the assay with EKVX NSCLC; 5.01 µM with HCT-15 colon. Moreover, the total growth inhibition concentration (TGI) with COLO 205 colon was found to be 30 µM; in the assay with OVCAR-8 ovarian, 13.6 µM; with M14 melanoma, 8.5 µM; in the assay on OVCAR-5 ovarian, 4.45 µM.
Broadly, the GI50 is the concentration giving 50% growth inhibition. As for `CCCCCCNCCCNc1c2cc(OC)ccc2nc2cccc([N+](=O)[O-])c12`, the 50% growth inhibitory concentration (GI50) was 0.164 µM in the assay on MDA-MB-435; 0.155 µM with HL-60(TB) leukemia; 0.261 µM with SF-268 CNS; 1.35 µM in the assay with EKVX NSCLC; 0.212 µM in the assay with HCT-15 colon; 0.143 µM in the assay on COLO 205 colon. For the same compound, the GI50 in the assay with OVCAR-8 ovarian was 0.236 µM and 0.105 µM; in the assay on M14 melanoma, 0.143 µM; in the assay on OVCAR-5 ovarian, 0.19 µM. For the same compound, the TGI is 0.314 µM and 0.321 µM in the assay on MDA-MB-435; 0.0643 µM in the assay on HCC-2998 colon; 0.418 µM and 1.01 µM in the assay on SF-268 CNS; 0.427 µM and 3.32 µM with EKVX NSCLC; 14.4 µM with HCT-15 colon; 0.648 µM with COLO 205 colon. The total growth inhibition concentration (TGI) was 2.45 µM and 0.644 µM with OVCAR-8 ovarian; 0.285 µM and 0.293 µM with M14 melanoma; 0.383 µM and 0.794 µM with OVCAR-5 ovarian.
For the compound `Cc1cc(CCl)c(C)cc1CCl`, the GI50 was 1.84 µM in the assay on MDA-MB-435; 1.54 µM with HCC-2998 colon; 2.98 µM with HL-60(TB) leukemia; 1.02 µM in the assay on SF-268 CNS; 2.08 µM with EKVX NSCLC; 2.72 µM with HCT-15 colon. The GI50 with COLO 205 colon is 1.53 µM; in the assay with OVCAR-8 ovarian, 3.21 µM; with M14 melanoma, 3.54 µM; in the assay with OVCAR-5 ovarian, 2.94 µM. For the same compound, the total growth inhibition concentration (TGI) in the assay with MDA-MB-435 turned out to be 4.69 µM; in the assay on HCC-2998 colon, 3.51 µM; in the assay with HL-60(TB) leukemia, 13.2 µM; in the assay on SF-268 CNS, 6.08 µM; in the assay with EKVX NSCLC, 5.49 µM; with HCT-15 colon it was 17.3 µM. The concentration for total growth inhibition (TGI) in the assay with COLO 205 colon stood at 3.11 µM; with OVCAR-8 ovarian, 17.4 µM; with M14 melanoma, 30.5 µM; with OVCAR-5 ovarian it was 8.62 µM.
Regarding `CCCC(=O)N[C@H]1CCc2cc(OC)c(OC)c(OC)c2-c2ccc(SC)c(=O)cc21`, the TGI is less than 0.01 µM with MDA-MB-435; greater than 4.64 µM in the assay with HCC-2998 colon; less than 0.01 µM in the assay on HL-60(TB) leukemia; 62.7 µM in the assay with SF-268 CNS; greater than 100 µM with EKVX NSCLC; greater than 100 µM in the assay with HCT-15 colon. The TGI with COLO 205 colon is less than 0.01 µM; in the assay on OVCAR-8 ovarian it was greater than 15.8 µM; in the assay on M14 melanoma, 34.7 µM; with OVCAR-5 ovarian, greater than 100 µM.
For `CC(Oc1ccc(Oc2cnc3ccc(Cl)cc3n2)cc1)C(=O)O` (stereo not given), the concentration for total growth inhibition (TGI) in the assay on MDA-MB-435, in the assay with HCC-2998 colon, in the assay with HL-60(TB) leukemia, in the assay on SF-268 CNS, with EKVX NSCLC and in the assay with HCT-15 colon was greater than 100 µM in each case. Also, the TGI in the assay with COLO 205 colon, in the assay on OVCAR-8 ovarian, with M14 melanoma and in the assay on OVCAR-5 ovarian was greater than 100 µM in each case.
`COc1ccc(C(=O)c2sc3nc(-c4ccccc4OC)ccc3c2N)cc1OC`: the GI50 in the assay on MDA-MB-435 is 4.25 µM; in the assay on HCC-2998 colon, 9.71 µM; in the assay with HL-60(TB) leukemia it was 4.07 µM; in the assay with SF-268 CNS, 11.9 µM; in the assay with HCT-15 colon, 6.13 µM; with COLO 205 colon, 8.9 µM. Moreover, the GI50 with OVCAR-8 ovarian is 4.02 µM; in the assay with M14 melanoma, 6.05 µM; in the assay on OVCAR-5 ovarian it was greater than 100 µM. In addition, the concentration for total growth inhibition (TGI) with MDA-MB-435, in the assay with HCC-2998 colon, in the assay with HL-60(TB) leukemia, with SF-268 CNS, with HCT-15 colon and with COLO 205 colon was greater than 100 µM throughout. For the same compound, the concentration for total growth inhibition (TGI) with OVCAR-8 ovarian, with M14 melanoma and with OVCAR-5 ovarian was greater than 100 µM throughout.
Consider `CC(=O)NC1(NC(C)=O)C2CC(C1Cc1ccccc1)C(C)(C)C2C` (stereo not given), for which the TGI in the assay on MDA-MB-435, in the assay with HCC-2998 colon, with HL-60(TB) leukemia, with SF-268 CNS, in the assay with EKVX NSCLC and in the assay on COLO 205 colon was greater than 100 µM throughout. Besides, the total growth inhibition concentration (TGI) with OVCAR-8 ovarian, in the assay on M14 melanoma and in the assay with OVCAR-5 ovarian was greater than 100 µM each time.
On to `O=C(Nc1cccc2[nH]c(C(F)(F)F)nc12)c1cc(Cl)ccc1Cl`, for which the GI50 in the assay with MDA-MB-435 is 2.96 µM; in the assay on HCC-2998 colon, 3.87 µM; in the assay on HL-60(TB) leukemia, 2.87 µM; in the assay with SF-268 CNS, 4.69 µM; in the assay with HCT-15 colon it was 3.38 µM; in the assay with COLO 205 colon, 1.84 µM. In addition, the figures for the GI50 in the assay on OVCAR-8 ovarian, in the assay with M14 melanoma and with OVCAR-5 ovarian were 3.68 µM, 3.32 µM and 4.03 µM, respectively. For the same compound, the TGI in the assay on MDA-MB-435 was 12.4 µM; with HCC-2998 colon, 15.8 µM; in the assay with HL-60(TB) leukemia, 7.53 µM; with SF-268 CNS, greater than 100 µM; with HCT-15 colon, 19.4 µM; in the assay with COLO 205 colon, 3.62 µM. Further, the TGI was 31.6 µM in the assay on OVCAR-8 ovarian, 16.3 µM with M14 melanoma and greater than 100 µM in the assay with OVCAR-5 ovarian.
For `CCCc1nc(Cl)nc(Cl)c1Cl`, the total growth inhibition concentration (TGI) in the assay with MDA-MB-435 was 1.41 µM; in the assay with HCC-2998 colon, 4.57 µM; in the assay on HL-60(TB) leukemia it was 0.359 µM; in the assay with SF-268 CNS, 4.17 µM; in the assay on EKVX NSCLC it was 2.63 µM; in the assay with HCT-15 colon, 3.15 µM. Further, the total growth inhibition concentration (TGI) amounted to 0.637 µM in the assay on OVCAR-8 ovarian, 1.13 µM in the assay on M14 melanoma and 1.74 µM in the assay with OVCAR-5 ovarian.
`COc1ccc(-c2nc(-c3nc4cc(Cl)c(F)cc4[nH]3)c3ccccn23)cc1`: the GI50 is 3.8 µM with MDA-MB-435; 4.03 µM in the assay with HCC-2998 colon; 4.97 µM in the assay with HL-60(TB) leukemia; 9.11 µM in the assay on SF-268 CNS; 5.72 µM in the assay with HCT-15 colon; 7.1 µM in the assay with COLO 205 colon. In addition, the GI50 in the assay with OVCAR-8 ovarian is 3.45 µM; in the assay on M14 melanoma it was 5.15 µM; in the assay with OVCAR-5 ovarian it was greater than 100 µM. Also, the total growth inhibition concentration (TGI) with MDA-MB-435, with HCC-2998 colon, in the assay on HL-60(TB) leukemia, with SF-268 CNS, in the assay on HCT-15 colon and in the assay on COLO 205 colon was greater than 100 µM each time. Moreover, the TGI in the assay on OVCAR-8 ovarian, in the assay with M14 melanoma and in the assay with OVCAR-5 ovarian was greater than 100 µM in each case.

For the origin of these results see PubChem BioAssay (NCI).
